Experimental data published in patent publication US3995021A, “Antigens of 5,5'alkylphenyl barbituric acids and related hydantoin compounds” (Biological Developments, Inc., priority 1975, dated 1976).

These molecules were tested on antibodies raised with the product of Example 1 (assay: Radioimmune assay: cross-reactivity of other barbituric acids (competitive inhibition of tritiated phenobarbital binding to antibody)). Details: at 50% inhibition, 4° C, 2 hours.

Structure (SMILES)	Percent Cross-Reactivity
C=CCC1(C(C)CCC)C(=O)NC(=O)NC1=O (stereo not shown) [Secobarbital]	1.8%
CCCC(C)C1(CC)C(=O)NC(=O)NC1=O (stereo not shown) [Pentobarbital]	2.2%
CCCC(C)C1(CC)C(=O)NC(=S)NC1=O (stereo not shown) [Thiopental]	0.2%
CCC1(CCC(C)C)C(=O)NC(=O)NC1=O [Amobarbital]	0.6%
